Source: patent US20070179112A1, “POLYMERIC NUCLEOSIDE PRODRUGS” (Reliable Biopharmaceutical, Inc., priority 2000, published 2007)

Experiments:
[1] = tested on: Snake Venom PhosphoDiEsterase, SVPDE (Phosphodiesterase I Type II)
snake phosphodiesterase = assay: Cleavage of oligo 6 by snake phosphodiesterase (Boehringer Mannheim), monitored by CGE; type: in vitro ADME, crotalus durissus; conditions: 0.5 μl enzyme in water (total volume 25 μl)
Protocol: Examples 13-22 describe cleavage of the Oligos 1-7. All cleavage experiments were performed at room temperature. The concentrations of the nucleases were reduced to slow down the rates of cleavage for the homoploymers. See S. Agrawal, in Delivery Strategies for Antisense Oligonucleotide Therapeutics, 275, 462-473, Ed. S. Akhtar, CAC Press, 1995. The Capillary Gel Electrophoresis equipment used for the studies were the Beckmman PAC/E 2200 system with Beckman Coulter E-CAP DNA capillary (#477477, […], 65 cm [27 cm effective length] loaded with Beckman Coulter E-CAP ssDNA 100-R gel and run using the Tris-Borate-Urea buffer prepared according to Beckman procedures. The CGE running conditions were as follows. The injection was done for 2 seconds at 10 kV followed by electro-osmotic flow with buffer for 30-60 min as needed at 10 kV. The cleavage reactions were monitored in most cases after 1, 2, 4, 5, 7, 10, 12, 15, 17 and 20 hrs. Some reactions were monitored after 5, 10 minutes and others after 72 and 100 hrs. The SVPDE is obtained from two different species of snakes, crotalus adamanteus and crotalus durissus. It has been observed that there is no variation in the cleavage experiments as a result of this change. […]

([cytarabine-pO]3-[2′O-methylcytidine-pO]2)3 [Oligo 2]
full length oligo cleaved (estimated) [1]: more than 50%
ratio of 2′O-MeCMP to dCMP reached as the cleavage progressed [1]: 5
ratio of araCMP to dCMP reached as the cleavage progressed [1]: 6

(cytarabine-pO)15-dC [Oligo 1]
cleavage/degradation observed by CGE [1]: minor cleavage
oligonucleotide degraded to monomers [1]: ~20%
oligonucleotide degraded to oligomers of smaller lengths [1]: ~50%
ratio of araCMP to dCMP reached as the cleavage progressed [1]: 13
ratio of araCMP to dCMP, starting value as the cleavage progressed [1]: 3

[2′O-methylcytarabine-pO] 15-dC [Oligo 5]
oligonucleotide degraded [1]: more than 80%

[dC-pO] 14-dC-OH [Oligo 6, reference compound]
cleavage/degradation observed by CGE (snake phosphodiesterase; after 30 minutes): a series of shorter oligomers due to partial cleavage was observed
cleavage/degradation observed by CGE (snake phosphodiesterase; after 2 hours): no full length oligonucleotide was observed
digestion [1]: more than 90%

polycylidilic acid [Oligo 7, reference compound]
digestion [1]: more than 90%
